Columns and labels:
Assay in all cases: biochemical
Type in all cases: binding
panel of 442 kinases [1] = target: T1, panel of 442 kinases (Homo sapiens, UniProt O15530); settings: kinase PDPK1; for remaining activity at 1 µM: read-out: % of control at 1 µM
T1 construct: purchased Ambit Biosciences (scanMAXX KINOMEscan)
T1 sequence (O15530 1-556): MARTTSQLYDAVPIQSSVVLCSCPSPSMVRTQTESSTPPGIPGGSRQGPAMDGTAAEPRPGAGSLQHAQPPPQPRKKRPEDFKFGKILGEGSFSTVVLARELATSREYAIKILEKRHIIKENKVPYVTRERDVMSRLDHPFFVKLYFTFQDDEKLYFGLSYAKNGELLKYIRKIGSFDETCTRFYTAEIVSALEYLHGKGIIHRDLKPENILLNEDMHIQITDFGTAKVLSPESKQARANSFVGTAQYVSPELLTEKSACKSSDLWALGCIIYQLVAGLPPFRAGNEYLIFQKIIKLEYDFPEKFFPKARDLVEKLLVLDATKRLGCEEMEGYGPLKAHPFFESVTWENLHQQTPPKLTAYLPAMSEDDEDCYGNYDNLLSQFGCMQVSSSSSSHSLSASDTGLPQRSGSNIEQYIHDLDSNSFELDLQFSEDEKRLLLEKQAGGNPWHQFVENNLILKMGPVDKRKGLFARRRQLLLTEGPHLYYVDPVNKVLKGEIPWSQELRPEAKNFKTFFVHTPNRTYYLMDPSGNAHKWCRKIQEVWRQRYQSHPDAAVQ

panel of 442 kinases [2] = target: T2, panel of 442 kinases (Homo sapiens, UniProt Q8WTQ7); settings: kinase GRK7; for remaining activity at 1 µM: read-out: % of control at 1 µM
T2 construct: purchased Ambit Biosciences (scanMAXX KINOMEscan)
T2 sequence (Q8WTQ7 1-553): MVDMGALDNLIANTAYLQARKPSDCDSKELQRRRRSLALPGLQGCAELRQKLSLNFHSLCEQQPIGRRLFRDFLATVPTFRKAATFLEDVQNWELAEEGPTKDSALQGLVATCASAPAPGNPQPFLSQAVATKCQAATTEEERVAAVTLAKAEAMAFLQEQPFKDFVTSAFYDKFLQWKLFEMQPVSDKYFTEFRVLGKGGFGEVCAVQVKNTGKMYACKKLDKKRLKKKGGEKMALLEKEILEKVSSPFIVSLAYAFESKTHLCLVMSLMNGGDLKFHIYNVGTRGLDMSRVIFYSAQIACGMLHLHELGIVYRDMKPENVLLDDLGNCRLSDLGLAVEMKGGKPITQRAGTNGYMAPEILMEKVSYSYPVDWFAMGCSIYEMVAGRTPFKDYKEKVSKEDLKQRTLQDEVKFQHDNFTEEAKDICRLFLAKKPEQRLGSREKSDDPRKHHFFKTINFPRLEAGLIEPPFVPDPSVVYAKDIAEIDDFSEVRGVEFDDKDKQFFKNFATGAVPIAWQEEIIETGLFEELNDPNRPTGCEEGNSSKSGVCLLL

panel of 442 kinases [3] = target: T3, panel of 442 kinases (Homo sapiens, UniProt Q12852); settings: DLK; for remaining activity at 1 µM: read-out: % of control at 1 µM
T3 construct: purchased Ambit Biosciences (scanMAXX KINOMEscan)
T3 sequence (Q12852 1-859): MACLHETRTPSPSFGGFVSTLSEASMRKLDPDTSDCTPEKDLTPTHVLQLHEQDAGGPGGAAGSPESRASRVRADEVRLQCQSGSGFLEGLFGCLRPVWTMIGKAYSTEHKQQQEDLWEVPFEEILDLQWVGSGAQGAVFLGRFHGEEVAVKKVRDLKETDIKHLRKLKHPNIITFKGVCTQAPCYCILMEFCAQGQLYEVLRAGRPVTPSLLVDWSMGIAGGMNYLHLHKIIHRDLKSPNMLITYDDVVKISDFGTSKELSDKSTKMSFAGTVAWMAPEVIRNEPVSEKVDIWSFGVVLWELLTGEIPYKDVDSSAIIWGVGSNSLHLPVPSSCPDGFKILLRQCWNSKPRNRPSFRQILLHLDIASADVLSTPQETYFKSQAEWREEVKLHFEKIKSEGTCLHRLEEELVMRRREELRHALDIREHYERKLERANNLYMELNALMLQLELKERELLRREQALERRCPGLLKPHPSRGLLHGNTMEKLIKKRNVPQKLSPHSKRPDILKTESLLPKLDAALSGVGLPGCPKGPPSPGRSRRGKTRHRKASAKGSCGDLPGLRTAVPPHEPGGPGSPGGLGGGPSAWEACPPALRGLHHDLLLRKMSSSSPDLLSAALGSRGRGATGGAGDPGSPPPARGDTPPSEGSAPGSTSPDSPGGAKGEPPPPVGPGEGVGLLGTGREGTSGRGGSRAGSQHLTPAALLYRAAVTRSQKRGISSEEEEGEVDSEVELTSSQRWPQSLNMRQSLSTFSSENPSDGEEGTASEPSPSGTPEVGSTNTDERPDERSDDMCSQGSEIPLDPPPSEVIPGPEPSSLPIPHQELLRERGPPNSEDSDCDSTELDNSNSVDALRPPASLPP

panel of 442 kinases [4] = target: T4, panel of 442 kinases (Homo sapiens, UniProt P00519, Y253F); settings: ABL1(Y253F)-phosphorylated; for remaining activity at 1 µM: read-out: % of control at 1 µM
T4 construct: purchased Ambit Biosciences (scanMAXX KINOMEscan)

panel of 442 kinases [5] = target: T5, panel of 442 kinases (Homo sapiens, UniProt Q9BXA7); settings: kinase TSSK1B; for remaining activity at 1 µM: read-out: TSSK1B (% of control at 1 µM)
T5 construct: purchased Ambit Biosciences (scanMAXX KINOMEscan)
T5 sequence (Q9BXA7 1-367): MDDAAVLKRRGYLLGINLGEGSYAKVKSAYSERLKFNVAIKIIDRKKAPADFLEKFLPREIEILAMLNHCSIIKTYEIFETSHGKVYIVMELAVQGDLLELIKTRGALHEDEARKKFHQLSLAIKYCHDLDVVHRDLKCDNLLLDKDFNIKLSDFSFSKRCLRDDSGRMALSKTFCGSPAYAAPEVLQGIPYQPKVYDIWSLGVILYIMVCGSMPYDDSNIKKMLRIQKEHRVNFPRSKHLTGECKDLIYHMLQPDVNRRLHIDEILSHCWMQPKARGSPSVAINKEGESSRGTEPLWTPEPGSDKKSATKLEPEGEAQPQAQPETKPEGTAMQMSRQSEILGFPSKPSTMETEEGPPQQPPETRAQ

panel of 442 kinases [6] = target: T6, panel of 442 kinases (Homo sapiens, UniProt Q8TDX7); settings: kinase NEK7; for remaining activity at 1 µM: read-out: % of control at 1 µM
T6 construct: purchased Ambit Biosciences (scanMAXX KINOMEscan)
T6 sequence (Q8TDX7 whole entry): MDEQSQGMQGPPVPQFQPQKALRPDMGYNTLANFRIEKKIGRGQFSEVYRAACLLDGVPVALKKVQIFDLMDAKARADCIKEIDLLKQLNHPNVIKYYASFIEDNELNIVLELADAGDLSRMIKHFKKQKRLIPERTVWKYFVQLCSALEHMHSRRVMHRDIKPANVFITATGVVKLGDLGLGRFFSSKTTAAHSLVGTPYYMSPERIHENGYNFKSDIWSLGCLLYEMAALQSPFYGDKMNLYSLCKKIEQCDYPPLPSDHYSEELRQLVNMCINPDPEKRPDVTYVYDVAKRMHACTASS

panel of 442 kinases [7] = target: T7, panel of 442 kinases (Homo sapiens, UniProt Q15208); settings: kinase NDR1; for remaining activity at 1 µM: read-out: % of control at 1 µM
T7 construct: purchased Ambit Biosciences (scanMAXX KINOMEscan)
T7 sequence (Q15208 whole entry): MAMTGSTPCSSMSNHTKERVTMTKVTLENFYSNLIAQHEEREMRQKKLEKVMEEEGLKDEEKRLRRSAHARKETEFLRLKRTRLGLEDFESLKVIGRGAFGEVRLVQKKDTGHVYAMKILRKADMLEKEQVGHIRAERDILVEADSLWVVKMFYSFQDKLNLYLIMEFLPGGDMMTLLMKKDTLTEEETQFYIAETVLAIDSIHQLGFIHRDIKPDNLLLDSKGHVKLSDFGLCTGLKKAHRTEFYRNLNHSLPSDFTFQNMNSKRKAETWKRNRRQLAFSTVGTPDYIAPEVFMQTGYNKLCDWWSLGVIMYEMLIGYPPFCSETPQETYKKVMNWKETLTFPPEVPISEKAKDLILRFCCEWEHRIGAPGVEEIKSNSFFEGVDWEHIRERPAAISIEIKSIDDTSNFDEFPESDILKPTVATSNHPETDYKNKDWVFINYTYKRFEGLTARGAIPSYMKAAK

panel of 442 kinases [8] = target: T8, panel of 442 kinases (Homo sapiens, UniProt Q15375); settings: EPHA7; for remaining activity at 1 µM: read-out: % of control at 1 µM
T8 construct: purchased Ambit Biosciences (scanMAXX KINOMEscan)
T8 sequence (Q15375 28-998): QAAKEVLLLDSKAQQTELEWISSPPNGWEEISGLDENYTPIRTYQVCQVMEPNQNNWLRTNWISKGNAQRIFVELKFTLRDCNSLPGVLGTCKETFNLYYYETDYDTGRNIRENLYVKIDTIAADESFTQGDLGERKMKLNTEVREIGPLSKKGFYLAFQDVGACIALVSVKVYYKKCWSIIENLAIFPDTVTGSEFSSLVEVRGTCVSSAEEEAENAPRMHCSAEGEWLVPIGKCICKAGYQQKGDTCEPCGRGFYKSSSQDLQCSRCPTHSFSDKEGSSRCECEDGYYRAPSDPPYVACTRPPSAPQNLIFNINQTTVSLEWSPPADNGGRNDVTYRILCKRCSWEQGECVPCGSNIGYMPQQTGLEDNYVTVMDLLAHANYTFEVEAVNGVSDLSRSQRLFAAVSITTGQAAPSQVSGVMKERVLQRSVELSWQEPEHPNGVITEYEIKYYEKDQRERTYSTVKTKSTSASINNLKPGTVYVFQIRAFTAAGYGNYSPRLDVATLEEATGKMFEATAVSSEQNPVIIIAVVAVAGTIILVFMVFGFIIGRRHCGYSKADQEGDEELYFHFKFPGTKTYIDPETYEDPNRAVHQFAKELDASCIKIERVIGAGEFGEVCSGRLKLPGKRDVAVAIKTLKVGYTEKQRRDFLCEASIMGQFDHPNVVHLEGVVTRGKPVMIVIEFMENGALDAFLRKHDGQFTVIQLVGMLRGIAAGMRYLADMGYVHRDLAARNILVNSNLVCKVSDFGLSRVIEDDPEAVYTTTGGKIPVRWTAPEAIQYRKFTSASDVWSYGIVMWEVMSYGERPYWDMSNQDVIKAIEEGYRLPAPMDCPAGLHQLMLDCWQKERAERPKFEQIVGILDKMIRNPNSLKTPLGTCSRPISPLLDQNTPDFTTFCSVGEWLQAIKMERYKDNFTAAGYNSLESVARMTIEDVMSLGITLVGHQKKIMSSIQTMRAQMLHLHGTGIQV

[9] = 10 µM, read-out: % of control at 10 µM

SMILES	remaining activity at 1 µM (panel of 442 kinases [1]) [%]	remaining activity at 10 µM (panel of 442 kinases [1]; [9]) [%]	remaining activity at 1 µM (panel of 442 kinases [2]) [%]	remaining activity at 10 µM (panel of 442 kinases [2]; [9]) [%]	remaining activity at 1 µM (panel of 442 kinases [3]) [%]	remaining activity at 10 µM (panel of 442 kinases [3]; [9]) [%]	remaining activity at 1 µM (panel of 442 kinases [4]) [%]	remaining activity at 10 µM (panel of 442 kinases [4]; [9]) [%]	remaining activity at 1 µM (panel of 442 kinases [5]) [%]	remaining activity at 10 µM (panel of 442 kinases [5]; 10 µM, read-out: TSSK1B (% of control at 10 µM)) [%]	remaining activity at 1 µM (panel of 442 kinases [6]) [%]	remaining activity at 10 µM (panel of 442 kinases [6]; [9]) [%]	remaining activity at 1 µM (panel of 442 kinases [7]) [%]	remaining activity at 10 µM (panel of 442 kinases [7]; [9]) [%]	remaining activity at 1 µM (panel of 442 kinases [8]) [%]	remaining activity at 10 µM (panel of 442 kinases [8]; [9]) [%]
Nc1cc(C(F)(F)F)c(-c2cc(N3CCOCC3)nc(N3CCOCC3)n2)cn1 [Buparlisib]	89	100	77	100	94	100	85	94	97	100	100	94	100	100	100	100
Cn1c(=O)n(-c2ccc(C(C)(C)C#N)cc2)c2c3cc(-c4cnc5ccccc5c4)ccc3ncc21 [Dactolisib, 2-methyl-2-[4-(3-methyl-2-oxo-8-quinolin-3-yl-2,3-dihydroimidazo[4,5-c]quinolin-1-yl)-phenyl] propionitrile]	90	–	92	–	100	–	82	–	98	–	90	–	100	–	100	–
COc1ncc(-c2ccc3nccc(-c4ccnnc4)c3c2)cc1NS(=O)(=O)c1ccc(F)cc1F [Omipalisib]	96	–	100	–	63	–	100	–	100	–	100	–	100	–	100	–
FC(F)c1nc2ccccc2n1-c1nc(N2CCOCC2)nc(N2CCOCC2)n1 [ZSTK474, 2-(difluoromethyl)-1-[4,6-di(4-morpholinyl)-1,3,5-triazin-2-yl]-1H-benzimidazole]	100	–	98	–	100	–	96	–	76	–	68	–	95	–	100	–
